Data taken from patent US20260125371A1, “METHOD FOR INHIBITING CLOSTRIDIOIDES DIFFICILE SPORE GERMINATION” (UNIVERSITY OF NOTRE DAME DU LAC, priority 2022, published 2026).
≈ marks a conversion by molar mass, not a printed value. Read-outs that look alike come from different tables or passages of the source.

System: C. difficile ATCC 43255
Assay: Determination of minimal-inhibitory concentrations (microdilution), C. difficile ATCC 43255
Format: cell-based, Clostridioides difficile
Settings: for MIC: Clostridioides difficile
[1] = ATCC43255, 24 h, C. difficile ATCC 43255, 24 h, read-out: MIC (μg/mL) 24 h
[2] = ATCC43255, 48 h, C. difficile ATCC 43255, 48-h incubation, read-out: MIC (μg/mL) 48 h
[3] = C. difficile ATCC 43255, 48-h incubation

| Structure (SMILES) | MIC [1] | MIC [2] | also measured |
| --- | --- | --- | --- |
| FC(F)(F)c1ccc(Oc2ccc(-c3noc(-c4ccncc4)n3)cc2)cc1 [Compound 23, 5-(Pyridin-4-yl)-3-(4-(4-(trifluoromethyl)phenoxy)phenyl)-1,2,4-oxadiazole] | > 128 µg/mL | > 128 µg/mL |  |
| FC(F)(F)c1ccc(Oc2ccc(-c3noc(-c4cn[nH]c4)n3)cc2)cc1 [Compound 33, 5-(1H-Pyrazol-4-yl)-3-(4-(4-(trifluoromethyl)phenoxy)phenyl)-1,2,4-oxadiazole] | > 128 µg/mL | > 128 µg/mL |  |
| FC(F)(F)c1ccc(Oc2ccc(-c3noc(-c4cc5ccccc5[nH]4)n3)cc2)cc1 [Compound 48, 5-(1H-Indol-2-yl)-3-(4-(4-(trifluoromethyl)phenoxy)phenyl)-1,2,4-oxadiazole] | > 128 µg/mL | > 128 µg/mL |  |
| O=[N+]([O-])c1ccc(-c2nc(-c3ccc(OC4CCCC4)cc3)no2)cc1 [Compound 50, 3-(4-(Cyclopentyloxy)phenyl)-5-(4-nitrophenyl)-1,2,4-oxadiazole] | > 128 µg/mL |  | MIC (μg/mL) 48 h [3]: >128 µg/mL |
| c1nc2ccc(-c3nc(-c4ccc(OC5CCCC5)cc4)no3)cc2[nH]1 [Compound 55, 5-(1H-Benzo[d]imidazol-6-yl)-3-(4-(cyclopentyloxy)phenyl)-1,2,4-oxadiazole] | 128 µg/mL (≈ 370 µM) | > 128 µg/mL | MIC (μg/mL) 48 h [3]: 128 µg/mL (≈ 370 µM) |
| c1cc2cc(-c3nc(-c4ccc(OC5CCCC5)cc4)no3)ccc2[nH]1 [Compound 56, 3-(4-(Cyclopentyloxy)phenyl)-5-(1H-indol-5-yl)-1,2,4-oxadiazole] | > 128 µg/mL | > 128 µg/mL | MIC (μg/mL) 48 h [3]: >128 µg/mL |
| O=[N+]([O-])c1cn(CCO)c(-c2nc(-c3ccc(OC4CCCC4)cc3)no2)n1 [Compound 58, 3-(4-(Cyclopentyloxy)phenyl)-5-(1-(2-hydroxyethyl)-4-nitro-1H-imidazol-2-yl)-1,2,4-oxadiazole] | > 128 µg/mL | > 128 µg/mL | antibacterial activity against C. difficile (in words) (C. difficile ATCC43255): lost activity |
| Cn1c(-c2nc(-c3ccc(OC4CCCC4)cc3)no2)cnc1[N+](=O)[O-] [Compound 59, 3-(4-(Cyclopentyloxy)phenyl)-5-(1-methyl-2-nitro-1H-imidazol-5-yl)-1,2,4-oxadiazole] | 32 µg/mL (≈ 90.1 µM) |  |  |
| C[C@@H](NC(=O)OC(C)(C)C)c1nc(-c2ccc(OC3CCCC3)cc2)no1 [Compound 60, tert-Butyl (R)-(1-(3-(4-(cyclopentyloxy)phenyl)-1,2,4-oxadiazol-5-yl)ethyl) carbamate] |  |  | MIC (μg/mL) 48 h [3]: >128 µg/mL; MIC (μg/mL) 24 h (C. difficile ATCC 43255, 24 h): >128 µg/mL |
| C[C@@H](N)c1nc(-c2ccc(OC3CCCC3)cc2)no1 [Compound 61, (R)-1-(3-(4-(Cyclopentyloxy)phenyl)-1,2,4-oxadiazol-5-yl) ethan-1-amine] | > 128 µg/mL | > 128 µg/mL |  |
| C[C@@H](NC(=O)OC(C)(C)C)C(=O)N[C@H](C)c1nc(-c2ccc(OC3CCCC3)cc2)no1 [Compound 62, 5-((R)-1-((R)-2-(Boc-amino)propanamido)ethyl)-3-(4-(cyclopentyloxy)phenyl)-1,2,4-oxadiazole] | > 128 µg/mL | > 128 µg/mL |  |
| Oc1ccc(Cc2nc(-c3ccc(OC4CCCC4)cc3)no2)cc1 [Compound 63, 3-(4-(Cyclopentyloxy)phenyl)-5-(4-hydroxybenzyl)-1,2,4-oxadiazole] | 8 µg/mL (≈ 23.8 µM) | 16 µg/mL (≈ 47.6 µM) |  |
| Oc1ccc(Nc2nc(-c3ccc(OC4CCCC4)cc3)no2)cc1 [Compound 64, 4-((3-(4-(Cyclopentyloxy)phenyl)-1,2,4-oxadiazol-5-yl)amino)phenol] | 16 µg/mL (≈ 47.4 µM) | 32 µg/mL (≈ 94.8 µM) |  |
| Oc1cccc(/C=C/c2nc(-c3ccc(OC4CCCC4)cc3)no2)c1 [Compound 65, 3-(4-(Cyclopentyloxy)phenyl)-(E)-5-(3-hydroxystyryl)-1,2,4-oxadiazole] | > 128 µg/mL | > 128 µg/mL |  |
| Oc1ccc(/C=C/c2nc(-c3ccc(OC4CCCC4)cc3)no2)cc1 [Compound 66, 3-(4-(Cyclopentyloxy)phenyl)-(E)-5-(4-hydroxystyryl)-1,2,4-oxadiazole] | 32 µg/mL (≈ 91.8 µM) | 64 µg/mL (≈ 184 µM) |  |
| Nc1nc(-c2ccc(OC3CCCC3)cc2)no1 [Compound 68, 3-(4-(Cyclopentyloxy)phenyl)-1,2,4-oxadiazol-5-amine] | > 128 µg/mL | > 128 µg/mL |  |
| Oc1ccc(-c2nc(-c3ccc(OC4CCCC=C4Br)cc3)no2)cc1 (stereo not shown) [Compound 78, 4-(3-(4-((2-Bromocyclohex-2-en-1-yl)oxy)phenyl)-1,2,4-oxadiazol-5-yl)phenol] |  |  | MIC (μg/mL) 48 h [3]: >128 µg/mL; MIC (ATCC43255, 24 h, read-out: MIC (μg/mL) 24 h): > 128 µg/mL; MIC (ATCC43255, 48 h, read-out: MIC (μg/mL) 48 h): > 128 µg/mL |
| CC(C)(C)OC(=O)N1CCC(Oc2ccc(-c3noc(-c4ncc([N+](=O)[O-])[nH]4)n3)cc2)CC1 [Compound 133, 3-(4-((1-(tert-Butoxycarbonyl)piperidin-4-yl)oxy)phenyl)-5-(5-nitro-1H-imidazol-2-yl)-1,2,4-oxadiazole] | > 128 µg/mL | > 128 µg/mL |  |

The next lines start with results.

| MIC [1] | MIC [2] | Structure (SMILES) | also measured |
| --- | --- | --- | --- |
| 64 µg/mL (≈ 260 µM) | 64 µg/mL (≈ 260 µM) | O=c1[nH]c(-c2ccc(OC3CCCC3)cc2)no1 [Compound 69, 3-(4-(Cyclopentyloxy)phenyl)-1,2,4-oxadiazol-5 (4H)-one] |  |
| > 128 µg/mL | > 128 µg/mL | Clc1nc(-c2ccc(OC3CCCC3)cc2)no1 [Compound 70, 5-Chloro-3-(4-(cyclopentyloxy)phenyl)-1,2,4-oxadiazole] |  |
| > 128 µg/mL |  | Oc1ccc(-c2nc(-c3ccc(Oc4ccccc4)c(Br)c3)no2)cc1 [Compound 79, 4-(3-(3-Bromo-4-phenoxyphenyl)-1,2,4-oxadiazol-5-yl)phenol] | MIC (μg/mL) 48 h [3]: >128 µg/mL |
| 16 µg/mL (≈ 54.7 µM) | 128 µg/mL (≈ 438 µM) | C#CCOc1ccc(-c2noc(-c3ccc(O)cc3)n2)cc1 [Compound 88, 4-(3-(4-(Prop-2-yn-1-yloxy)phenyl)-1,2,4-oxadiazol-5-yl)phenol] |  |
| > 128 µg/mL | > 128 µg/mL | C#CCCOc1ccc(-c2noc(-c3ccc(O)cc3)n2)cc1 [Compound 89, 4-(3-(4-(But-3-yn-1-yloxy)phenyl)-1,2,4-oxadiazol-5-yl)phenol] |  |
| 64 µg/mL (≈ 205 µM) | > 128 µg/mL | COC(OC)c1ccc(-c2noc(-c3ccc(O)cc3)n2)cc1 [Compound 106, 4-(3-(4-(Dimethoxymethyl)phenyl)-1,2,4-oxadiazol-5-yl)phenol] |  |
| 64 µg/mL (≈ 240 µM) | > 128 µg/mL | O=Cc1ccc(-c2noc(-c3ccc(O)cc3)n2)cc1 [Compound 107, 4-(5-(4-Hydroxyphenyl)-1,2,4-oxadiazol-3-yl)benzaldehyde] |  |
| 32 µg/mL (≈ 95.2 µM) | 32 µg/mL (≈ 95.2 µM) | Oc1ccc(-c2nc(-c3ccc(C(O)C(F)(F)F)cc3)no2)cc1 (stereo not shown) [Compound 108, 4-(3-(4-(2,2,2-Trifluoro-1-hydroxyethyl)phenyl)-1,2,4-oxadiazol-5-yl)phenol] |  |
| 8 µg/mL (≈ 23.9 µM) | 8 µg/mL (≈ 23.9 µM) | O=C(c1ccc(-c2noc(-c3ccc(O)cc3)n2)cc1)C(F)(F)F [Compound 109, 5-(4-Hydroxyphenyl)-3-(4-(2,2,2-trifluoroacetyl)phenyl)-1,2,4-oxadiazole] |  |
| > 128 µg/mL | > 128 µg/mL | Fc1ccc2oc3ccc(-c4noc(-c5ccc6[nH]ccc6c5)n4)cc3c2c1 [Compound 121, 3-(8-Fluorodibenzo[b,d]furan-2-yl)-5-(1H-indol-5-yl)-1,2,4-oxadiazole] |  |
| > 128 µg/mL | > 128 µg/mL | Fc1ccccc1-c1noc(-c2ccc3[nH]ccc3c2)n1 [Compound 125, 3-(2-Fluorophenyl)-5-(1H-indol-5-yl)-1,2,4-oxadiazole] |  |
| > 128 µg/mL | > 128 µg/mL | O=[N+]([O-])c1ccc(-c2noc(-c3ccc4[nH]ccc4c3)n2)cc1 [Compound 126, 5-(1H-Indol-5-yl)-3-(4-nitrophenyl)-1,2,4-oxadiazole] |  |
| > 128 µg/mL | > 128 µg/mL | c1cc2cc(-c3nc(-c4ccc5c(c4)CCN5)no3)ccc2[nH]1 [Compound 129, 5-(1H-Indol-5-yl)-3-(indolin-5-yl)-1,2,4-oxadiazole] |  |
| > 128 µg/mL | > 128 µg/mL | CN1CCC(Oc2ccc(-c3noc(-c4ncc([N+](=O)[O-])[nH]4)n3)cc2)C1.Cl (stereo not shown) [Compound 132, 3-(4-((1-Methylpyrrolidin-3-yl)oxy)phenyl)-5-(5-nitro-1H-imidazol-2-yl)-1,2,4-oxadiazole hydrochloride] |  |
| > 128 µg/mL | > 128 µg/mL | Cl.O=[N+]([O-])c1c[nH]c(-c2nc(-c3ccc(OC4CCNCC4)cc3)no2)n1 [Compound 134, 5-(4-Nitro-1H-imidazol-2-yl)-3-(4-(piperidin-4-yloxy)phenyl)-1,2,4-oxadiazole hydrochloride] |  |
| > 128 µg/mL | > 128 µg/mL | O=C(NNC(=O)c1ccc(OC2CCCC2)cc1)c1ccc(O)cc1 [Compound 138, 4-(Cyclopentyloxy)-N′-(4-hydroxybenzoyl)benzohydrazide] |  |
| > 128 µg/mL |  | Oc1ccc(-c2nnc(-c3ccc(OC4CCCC4)cc3)o2)cc1 [Compound 139, 4-(5-(4-(Cyclopentyloxy)phenyl)-1,3,4-oxadiazol-2-yl)phenol] | MIC (μg/mL) 48 h [3]: >128 µg/mL |
